Patent US8367873B2, “Phenyl-substituted bicyclooctane-1,3-dione derivatives” (Bayer Cropscience AG, priority 2008, dated 2013)

How the values were obtained:
Type in all cases: in vivo
[1] = test system: monocotylidonous and dicotylidonous weed and crop plants; test: Herbicidal post-emergence action (other test plants); settings: post-emergence method, 80 g/ha
In short: (§1)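 Greenhouse-grown weeds were treated post-emergence at the one-leaf stage, two to three weeks after sowing in sandy loam. Compounds formulated as WP were sprayed at various rates in 600 l/ha water with 0.2% wetting agent. Damage was scored visually after about three weeks versus untreated controls (0% = like control, 100% = dead).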

Setaria viridis [2] = test: Herbicidal post-emergence action; settings: post-emergence method, 80 g/ha
In short: as §1

Alopecurus myosuroides [3] = test: Herbicidal post-emergence action; settings: post-emergence method, 80 g/ha
In short: as §1

Lolium multiflorum [4] = test: Herbicidal post-emergence action; settings: post-emergence method, 80 g/ha
In short: as §1

Echinocloa crus-galli [5] = test: Herbicidal post-emergence action; settings: post-emergence method, 80 g/ha
In short: as §1

Setaria viridis [6] = test: Herbicidal pre-emergence action; settings: pre-emergence method, 80 g/ha, greenhouse, visual assessment vs untreated controls
In short: (§2)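 Visual percent damage score (100% = dead plants, 0% = as untreated control) taken three weeks after pre-emergence treatment. Compounds were wettable powders sprayed onto covering soil over seeds in sandy loam, 600 l/ha water with 0.2% wetting agent, several application amounts; pots kept in greenhouse.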

Alopecurus myosuroides [7] = test: Herbicidal pre-emergence action; settings: pre-emergence method, 80 g/ha, greenhouse, visual assessment vs untreated controls
In short: as §2

Lolium multiflorum [8] = test: Herbicidal pre-emergence action; settings: pre-emergence method, 80 g/ha, greenhouse, visual assessment vs untreated controls
In short: as §2

Echinocloa crus-galli [9] = test: Herbicidal pre-emergence action; settings: pre-emergence method, 80 g/ha, greenhouse, visual assessment vs untreated controls
In short: as §2

[10] = test system: monocotylidonous and dicotylidonous weed and crop plants; test: Herbicidal pre-emergence action (other test plants); settings: pre-emergence method, 80 g/ha, greenhouse, visual assessment vs untreated controls
Description: Seeds of monocotylidonous and dicotylidonous weed and crop plants are placed in sandy loam in wood fibre pots and covered with soil. The test compounds, formulated in the form of wettable powders (WP), are then, as an aqueous suspension with a water application rate of 600 l/ha (converted), with 0.2% of wetting agent added, applied to the surface of the covering soil in different amounts.
After the treatment, the pots are placed in a greenhouse and kept under good growth conditions for the test plants. The visual assessment of the emergence damage on the test plants is carried out after a trial period of three weeks by comparison with the untreated controls (herbicidal effect in percent: 100% effect=the plants have died, 0% effect=like control plants).

| Structure (SMILES) | herbicidal effect against AVEFA (Avena fatua) [1] [%] | herbicidal effect against SETVI (Setaria viridis) (Setaria viridis [2]) [%] | herbicidal effect against ALOMY (Alopecurus myosuroides) (Alopecurus myosuroides [3]) [%] | herbicidal effect against LOLMU (Lolium multiflorum) (Lolium multiflorum [4]) [%] | herbicidal effect against ECHCG (Echinochloa crus-galli) (Echinocloa crus-galli [5]) [%] | herbicidal effect SETVI (Setaria viridis [6]) [%] | herbicidal effect ALOMY (Alopecurus myosuroides [7]) [%] | herbicidal effect LOLMU (Lolium multiflorum [8]) [%] | herbicidal effect ECHCG (Echinocloa crus-galli [9]) [%] | herbicidal effect AVEFA [10] [%] |
| --- | --- | --- | --- | --- | --- | --- | --- | --- | --- | --- |
| CCc1cc(C)cc(CC)c1C1=C(OC(=O)OC)C2CC3(CC2C1=O)OCCS3 (mixture of isomers) [I-c-31] | 90 | 90 | 70 | 100 | 100 | 60 | 90 | 0 | 60 | 80 |
| CCc1cc(C)cc(CC)c1C1=C(OC(=O)OC)C2CC3(CC2C1=O)OCCCS3 (mixture of isomers) [I-c-32] | 90 | 80 | 80 | 90 | 90 | 70 | 80 | 100 | 100 | 70 |
| CCc1cc(C)cc(CC)c1C1=C(OC(=O)OC(C)C)C2CC3(CC2C1=O)OCCS3 (mixture of isomers) [I-c-33] | 90 | 80 | 80 | 90 | 100 | 60 | 90 | 100 | 90 | 90 |
| COC(=O)OC1=C(c2c(C)cc(C)cc2C)C(=O)C2CC3(CC12)OCC(C)CO3 (mixture of isomers) [I-c-53] | 80 | 90 | 100 | 100 | 90 | 60 | 100 | 90 | 0 | 50 |
| CCOC(=O)OC1=C(c2c(C)cc(C)cc2C)C(=O)C2CC3(COC(C)(C)O3)CC12 (mixture of isomers) [I-c-54] | 0 | 40 | 90 | 80 | 90 | 0 | 90 | 90 | 0 | 40 |
| COC(=O)OC1=C(c2c(C)cc(C)cc2C)C(=O)C2CC3(COC(C)(C)O3)CC12 (mixture of isomers) [I-c-56] | 20 | 40 | 90 | 80 | 80 | 0 | 90 | 90 | 20 | 20 |
| CCc1cc(C)cc(C)c1C1=C(OC(=O)OC(C)C)C2CC3(COC(C)(C)O3)CC2C1=O (mixture of isomers) [I-c-78] | 0 | 80 | 100 | 100 | 90 | 80 | 100 | 100 | 100 | 90 |
| CCc1cc(C)cc(C)c1C1=C(OC(=O)OC)C2CC3(COC(C)(C)O3)CC2C1=O (mixture of isomers) [I-c-79] | 70 | 90 | 100 | 100 | 100 | 80 | 90 | 100 | 100 | 80 |
| CCOC(=O)OC1=C(c2c(C)cc(C)cc2CC)C(=O)C2CC3(COC(C)(C)O3)CC12 (mixture of isomers) [I-c-80] | 70 | 90 | 90 | 100 | 100 | 60 | 100 | 100 | 100 | 60 |
| C=C1CC2C(=O)C(c3c(C)cc(C)cc3C)=C(OC(=O)OCC)C2C1 (racemic) [I-c-45] | 0 | 90 | 40 | 100 | 90 | 80 | 60 | 80 | 80 | 80 |
| C=C1CC2C(=O)C(c3c(C)cc(C)cc3C)=C(OC(=O)OC)C2C1 (racemic) [I-c-46] | 0 | 90 | 40 | 90 | 80 | 80 | 80 | 70 | 80 | 50 |
| CCOC(=O)OC1=C(c2c(C)cc(C)cc2C)C(=O)C2CC3(CC12)OCCCCO3 (racemic) [I-c-50] | 0 | 80 | 60 | 100 | 80 | 0 | 30 | 100 | 0 | 0 |
| CCOC(=O)OC1=C(c2c(C)cc(C)cc2C)C(=O)C2CC3(CC12)OCC=CCO3 (racemic) [I-c-51] | 40 | 100 | 100 | 100 | 100 | 90 | 100 | 90 | 30 | 60 |
